{"source": "patent US20250017907A1", "about": "“METHOD FOR PREVENTING AND/OR TREATING LIVER FIBROSIS BY USING 6-METHOXYBENZOXAZOLINONE AND COIX LACHRYMA-JOBI L. EXTRACT COMPRISING 6-METHOXYBENZOXAZOLINONE” (Taichung District Agricultural Research and Extension …, priority 2023, published 2025)", "key": {"[1]": {"test_system": "TAA-induced liver fibrotic C57BL/6J mice", "assay": "Liver histopathological observation (H&E, Sirius Red, IHC staining)", "assay_type": "in vivo", "details": "6 weeks; for collagen deposition (Sirius Red) / inflammatory infiltration (H&E) / liver structure deformation (H&E) / α-SMA expression (IHC): vs TAA group", "experimental": "According to the present invention, animals used in the following examples are described as follows. Male C57BL/6J mice (5-week-old) were from the National Laboratory Animal Center (Taipei, Taiwan), and housed in a temperature-controlled room on a 12 h light-dark cycle with free access to food and drinking water at the Animal Center of the National Yang Ming Chiao Tung University (Taipei, Taiwan). All experiments were approved by Institutional Animal Care and Use Committee of National Yang Ming Chiao Tung University. […]\nFor tests of CX, mice were randomly divided into the following four groups (n=8, per group): (1) NT group, (2) TAA group (200 mg/kg), (3) CX group (CX20, 20 mg/kg), and (4) CX group (CX50, 50 mg/kg). NT group received pure saline, and other groups intraperitoneally injected with TAA dissolved into saline thrice a week. Moreover, NT group and TAA group also received 5% propylene glycol, while CX groups received CX dissolved into 5% propylene glycol (prepared in 0.9% saline) by oral gavage once per day. […]\nThe procedure of liver histopathological observation is as follows. After fixation in 10% neutral buffered formalin solution, the liver tissues were embedded with paraffin and then sliced into 4 μm-thickness sections. Pathological sections were examined to assess the change of tissue architecture with the H&E staining kit (CIS-Biotechnology, Taiwan), the condition of collagen deposition with the Sirius Red staining kit (CIS-Biotechnology, Taiwan), and the expression of specific proteins in tissue with the immunohistochemistry kit (Agilent, USA), as well as phospho-SMAD2 (1:100; GeneTex, USA), phospho-SMAD3 (1:100; GeneTex, USA), and α-SMA (1:100; GeneTex, USA) antibodies.\nTo examine the effects of CX on liver fibrosis, this example established a TAA-induced liver fibrotic C57BL/6J mouse model. FIG. 6 is a schematic diagram of animal experiment design in 6-methoxybenzoxazolinone (6-MBOA) (CX) groups. For animal experiments, 6-week-old C57BL/6J mice were randomly divided into four groups including NT, TAA, CX20 (TAA+20 mg/kg CX), CX50 (TAA+50 mg/kg CX). (n=8 per group). Mice were given intraperitoneal injection of TAA thrice a week to induce liver fibrosis; they also received CX or the vehicle by oral gavage once per day. At the end of animal tests, mice were sacrificed at 12 weeks of age. Six-week-old mice were randomly divided into four groups, namely NT, TAA, CX20 and CX50 (FIG. 6). Among these groups, only the NT group was oral gavaged and administered with vehicle, the TAA group was oral gavaged with vehicle and administered with TAA, and the CX groups were oral gavaged with CX and administered with TAA. Oral gavage was performed once a day while intraperitoneal injection was given thrice a week; both oral gavage and intraperitoneal injection were continuously administered for six weeks. After that, the mice were sacrificed, and their liver tissues and serum were collected for subsequent analyses."}, "[2]": {"test_system": "TAA-induced liver fibrotic C57BL/6J mice", "assay": "Serum TGF-β1 ELISA", "assay_type": "in vivo", "details": "CX groups (20 and 50 mg/kg oral, 6 weeks); vs TAA group", "experimental": "For tests of CX, mice were randomly divided into the following four groups (n=8, per group): (1) NT group, (2) TAA group (200 mg/kg), (3) CX group (CX20, 20 mg/kg), and (4) CX group (CX50, 50 mg/kg). NT group received pure saline, and other groups intraperitoneally injected with TAA dissolved into saline thrice a week. Moreover, NT group and TAA group also received 5% propylene glycol, while CX groups received CX dissolved into 5% propylene glycol (prepared in 0.9% saline) by oral gavage once per day.\nTo examine the effects of CX on liver fibrosis, this example established a TAA-induced liver fibrotic C57BL/6J mouse model. FIG. 6 is a schematic diagram of animal experiment design in 6-methoxybenzoxazolinone (6-MBOA) (CX) groups. For animal experiments, 6-week-old C57BL/6J mice were randomly divided into four groups including NT, TAA, CX20 (TAA+20 mg/kg CX), CX50 (TAA+50 mg/kg CX). (n=8 per group). […]\nThe procedure of TGF-β1 enzyme-linked immunosorbent assay (ELISA) is as follows. The level of TGF-β1 was detected in serum by using commercial mouse ELISA kits (Invitrogen, USA) and the working procedure was followed a standard sandwich ELISA protocol. […] After reacted with stop solution, immediately measured the color intensity at 450 nm by ELISA reader (TECAN, Switzerland)."}, "[3]": {"test_system": "TGF-β1-activated HSC-T6 cells", "assay": "ROS detection assay (DCFDA)", "assay_type": "cell-based, rat", "details": "HSC-T6, TGF-β1, CX 10-100 μM, with increasing doses", "experimental": "The procedure of cell cultures is as follows. HSC-T6 cell is an immortalized cell line isolated from transformed SV40 large T-antigen transformed primary stellate cells of male Sprague-Dawley rats. HSC-T6 cells were maintained in Dulbecco's Modified Eagle Medium (DMEM, Sigma-Aldrich, USA) containing 8% fetal bovine serum (FBS, HyClone, USA), 100 U/mL of penicillin, and 100 μg/mL of streptomycin (Gibco, USA).\nFor hepatic stellate cell (HSC) activation, cells were cultured for 24 h and then replaced with serum-free medium for 24 h, after that, treated with transforming growth factor beta 1 (TGF-β1) (10 ng/mL) in the presence or absence of CX (10-100 μM) or adlay leaf, root, and seed extracts (25 and 50 μg/mL) for 24 h, or 30 min for intracellular signal pathways.\nThe procedure of ROS detection assay is as follows. 2′,7′-Dichlorofluorescein diacetate (DCFDA), a cell-permeable fluorogenic probe, is usually used to detect ROS and nitric oxide in live cells. DCFDA rapidly de-esterifies to form fluorescent 2′,7′-dichlorofluorescein (DCF) when it is oxidized by ROS in cells. For ROS detection, cells were seeded in the 96-well plate for 24 h, then starvation (culture in serum-free medium) and drug treatment, followed by changing the medium with DCFDA solution for 30 min, and detecting the excitation/emission spectra of 485/525 nm by multimode microplate readers (TECAN, Switzerland)."}, "[4]": {"details": "CX20: 20 mg/kg oral gavage once per day"}, "[5]": {"details": "CX50: 50 mg/kg oral gavage once per day"}}}
{"smiles": "COc1ccc2[nH]c(=O)oc2c1", "note": "[CX, 6-methoxybenzoxazolinone]", "values": [{"measurement": "collagen deposition (Sirius Red)", "setting": "[1]; [4]", "result": "significantly reduced"}, {"measurement": "inflammatory infiltration (H&E)", "setting": "[1]; [4]", "result": "significantly reduced"}, {"measurement": "liver structure deformation (H&E)", "setting": "[1]; [4]", "result": "significantly reduced"}, {"measurement": "α-SMA expression (IHC)", "setting": "[1]; [4]", "result": "significantly reduced"}, {"measurement": "p-SMAD2 expression (IHC)", "setting": "[1]; [5]", "result": "negatively regulated"}, {"measurement": "p-SMAD3 expression (IHC)", "setting": "[1]; [5]", "result": "negatively regulated"}, {"measurement": "collagen deposition (Sirius Red)", "setting": "[1]; [5]", "result": "significantly reduced"}, {"measurement": "inflammatory infiltration (H&E)", "setting": "[1]; [5]", "result": "significantly reduced"}, {"measurement": "liver structure deformation (H&E)", "setting": "[1]; [5]", "result": "significantly reduced"}, {"measurement": "α-SMA expression (IHC)", "setting": "[1]; [5]", "result": "significantly reduced"}, {"measurement": "upregulation of TGF-β1 in serum caused by TAA (ELISA)", "setting": "[2]", "result": "significantly reduced"}, {"measurement": "TGF-β1-induced ROS levels (DCFDA)", "setting": "[3]", "result": "reduced"}]}
